Key:
[1] = test system: hepatocellular carcinoma; details: cited from earlier work
[2] = test system: liver cancer; assay: Rate of response to sorafenib treatment (reduction in tumor size by CT and MRI, mRECIST) in liver cancer patients stratified by risk score or marker gene expression; assay type: in vivo, human
Protocol: In the following manner, RNA was extracted from each of the tissues and synthesized into cDNA.
The risk scores of a total of 29 liver cancer patients were calculated, and the risk score distribution of responders to sorafenib and the risk score distribution of non-responders to sorafenib were examined. Herein, whether or not sorafenib would have a therapeutic effect was determined based on the degree of reduction in tumor size by CT and MRI imagings, and criteria for the determination followed mRECIST (modified Response Evaluation Criteria in Solid tumors) criteria version 1.1.
In addition, after stratification of the liver cancer patients by classification, the rate of response to sorafenib treatment was examined in order to confirm improvement in clinical responses, and the results of the examination are shown in Table 5 below.

SMILES: CNC(=O)c1cc(Oc2ccc(NC(=O)Nc3ccc(Cl)c(C(F)(F)F)c3)cc2)ccn1 [sorafenib]
- treatment rate ([1]; hepatocellular carcinoma, unselected patients): 2-3%
- therapeutic effect ([1]; known value, NEJM2008 359(4):378-390): about 2.3%
- Response rate (%) ([2]; liver cancer patients with CDH1 expression ≦0.0067, 3 responders, 13 non-responders): 18.75%
- Response rate (%) ([2]; liver cancer patients with ID2 expression ≦0.4965, 3 responders, 12 non-responders): 20.0%
- Response rate (%) ([2]; liver cancer patients with MMP9 expression >0.0433, 3 responders, 15 non-responders): 16.67%
- Response rate (%) ([2]; liver cancer patients with TCF3 expression >0.3711, 2 responders, 1 non-responder): 66.67%
- Response rate (%) ([2]; liver cancer patients with risk score (CDH1, ID2, MMP9, TCF3) >87.59, 3 responders, 8 non-responders): 27.27%

Reference: patent US20170356048A1, “METHOD FOR PREDICTING RECEPTIVITY TO TARGETED ANTICANCER DRUG” (CBSBIOSCIENCE INC., priority 2014, published 2017)
